Experimental data reported in patent US20210369710A1, “MODULATORS OF MYC FAMILY PROTO-ONCOGENE PROTEIN” (Nalo Therapeutics, priority 2019, published 2021).

Experiments:
MycC Protein = target: T1, MycC Protein (Homo sapiens, UniProt P01106); test: Degradation of MycC protein, Western blot band density in cells; type: cell-based; settings: HL-60 or SKNBE2 cells; 6 uL of compound (1 mM) added to 3 mL cells; 6 hours; Western blot band density (ImageJ)
T1 construct: endogenous in cells; host or cells: HL-60 or SKNBE2
T1 sequence (P01106 whole entry): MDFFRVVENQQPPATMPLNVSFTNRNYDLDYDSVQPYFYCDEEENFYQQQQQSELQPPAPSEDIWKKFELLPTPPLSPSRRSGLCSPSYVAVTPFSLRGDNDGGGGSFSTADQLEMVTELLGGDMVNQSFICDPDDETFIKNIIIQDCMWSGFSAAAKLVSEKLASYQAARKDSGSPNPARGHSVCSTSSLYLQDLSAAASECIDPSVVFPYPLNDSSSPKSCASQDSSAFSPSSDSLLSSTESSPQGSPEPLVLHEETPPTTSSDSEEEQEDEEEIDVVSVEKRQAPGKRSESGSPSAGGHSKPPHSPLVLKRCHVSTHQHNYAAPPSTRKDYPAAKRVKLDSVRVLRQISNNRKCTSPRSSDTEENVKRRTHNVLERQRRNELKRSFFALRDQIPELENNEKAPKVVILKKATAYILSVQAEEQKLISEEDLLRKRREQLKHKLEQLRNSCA
Experimental: (§1) In a T150 flask was plated either 2×10^6 of HL-60 (human leukemia cell line) or SKNBE2 (neuroblastoma cell line) cells in a total of 30 mL containing Roswell Park Memorial Institute (RPMI) 1640 Medium (Thermo Fisher, Cat. #11875-085), 10% Fetal Bovine Serum (FBS, Thermo Fisher: Cat. #10437-028), 1% Penicillin/streptomycin (Thermo Fisher: Cat. #10378016), and 1% Amophotericin B (Thermo Fisher, Cat. #15290026). The cells were split every 72 hours by reseeding the HL-60 or SKNBE2 cells, and the passage number was noted. It is noteworthy that cell cultures that were above 40 passages were not used, and most experiments were done with cells of less than 30 passages.
(§2) In a 6-well cell culture plate, a total of 3 mL of either 1×10^6 cells/mL of HL-60 or SKNBE2 cells were seeded, resulting in a total of 3×10^6 cells per well. To each well containing 3 mL of either HL-60 or SKNBE2 cell line was added 6 uL of MycN modulating compound (1 mM) and the resulting plate was shaken from left to right, and not swirled. After 6 hours, the cells were placed in a 15 mL falcon tube and spun at 500 Gs at 4° C. in a swinging bucket centrifuge. The medium was then carefully removed without disturbing the pellet. The pellet was then washed with 3 mLs of chilled phosphate buffered saline (PBS) and subjected to the spin cycle. PBS was then removed and the pellet was lysed in 200 uL of radioimmunoprecipitation (RIPA) lysis buffer (Thermo Fisher: Cat. #899000) that is supplemented with protease and phosphatase inhibitors (Thermo Fisher: Cat. #A32959). The cell lysate was then subjected to spinning in a centrifuge for 10 minutes at 13000G at 4° C. The supernatant was then carefully transferred to a fresh eppendorf tube without disturbing the pellet (˜180 uL). The protein concentration of the cell lysate was then determined by using a bicinchoninic acid (BCA assay) according to manufacturer's protocol (Thermo Fisher: Cat. #23227).
(§3) Cell lysate, approximately 25 ug-30 ug, was loaded per well in a 4-20% polyacrylamide gel (Biorad. Cat. #5671094). After running the dye front off of the gel, the gel was transferred to a nitrocellulose membrane (Biorad: Cat. #1704159) using the transblot turbo system (Biorad: Cat. #1704150) according to manufacturer's protocol. After transferring for 30 minutes, the membrane was blocked with 5% BSA for 1 hour at room temperature. The BSA was then washed off and the primary antibody of choice (1:500) was added, and the membrane was incubated with the primary antibody at 4° C. for overnight. The next morning, the primary antibody was removed and the membrane was washed with 1×-TBST for 10 minutes and repeated three more times. Following the last wash, a secondary antibody (Molecular Devices. Cat. #R8209 or R8208) was added at 1:5000 dilution and incubated for 1 hour at room temperature. Following the incubation with the secondary antibody, the membrane was washed with 1×-TBST for 10 minutes and repeated three more times. Following the last wash, the membrane was washed with de-ionized water twice and dried for at least two hours. Once the membrane is completely dry, the Molecular Devices Spectra Max western system was used to observe the bands. The western image was saved and the band density was measured with ImageJ software.

MycN Protein = target: T2, MycN Protein (Homo sapiens, UniProt P04198); test: Degradation of MycN protein, Western blot band density in cells; type: cell-based; settings: HL-60 or SKNBE2 cells; 6 uL of compound (1 mM) added to 3 mL cells; 6 hours; Western blot band density (ImageJ)
T2 construct: endogenous in cells; host or cells: HL-60 or SKNBE2
T2 sequence (P04198 1-464): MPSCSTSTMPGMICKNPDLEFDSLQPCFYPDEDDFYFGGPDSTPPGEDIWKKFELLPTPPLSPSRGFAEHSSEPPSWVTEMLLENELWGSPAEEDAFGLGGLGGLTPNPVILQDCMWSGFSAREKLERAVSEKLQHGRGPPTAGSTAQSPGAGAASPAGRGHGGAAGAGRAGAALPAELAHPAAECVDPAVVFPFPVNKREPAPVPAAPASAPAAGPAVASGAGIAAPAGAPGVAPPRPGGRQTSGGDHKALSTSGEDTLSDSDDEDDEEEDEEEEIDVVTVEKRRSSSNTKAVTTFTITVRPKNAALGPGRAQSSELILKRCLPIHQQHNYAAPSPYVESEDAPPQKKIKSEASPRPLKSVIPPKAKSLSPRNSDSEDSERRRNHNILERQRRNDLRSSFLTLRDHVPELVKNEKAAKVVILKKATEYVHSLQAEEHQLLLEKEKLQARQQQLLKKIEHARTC
Experimental: as §1, §2, §3

Row | Compound | Dmax at 2 µM (MycC Protein) [%] | Dmax at 2 µM (MycN Protein) [%] | % Degradation of MycC (MycC Protein) | % Degradation of MycN (MycN Protein)
1 | O=C(NC1CCC2(CC1)COC2)N[C@H]1CC[C@H](Nc2nccc(Nc3cc(C4CCCC4)[nH]n3)n2)CC1 [Compound 49, 1-((1R,4R)-4-((4-((5-cyclopentyl-1H-pyrazol-3-yl)amino)pyrimidin-2-yl)amino)cyclohexyl)-3-(2-oxaspiro[3.5]nonan-7-yl)urea] | < 20 | < 20 | – | –
2 | O=C(N[C@H]1CC[C@H](Nc2nccc(Nc3cc(C4CCCC4)[nH]n3)n2)CC1)N[C@H]1C[C@H](c2ccccc2)C1 [Compound 52, 1-((1R,4R)-4-((4-((5-cyclopentyl-1H-pyrazol-3-yl)amino)pyrimidin-2-yl)amino)cyclohexyl)-3-(3-phenylcyclobutyl)urea] | 80 to 100 | 80 to 100 | – | –
3 | CS(=O)(=O)N1CC(NC(=O)N[C@H]2CC[C@H](Nc3nccc(Nc4cc(C5CCCC5)[nH]n4)n3)CC2)C1 [Compound 56] | 20 to 49 | < 20 | – | –
4 | O=C(NC1CCC(Nc2nccc(Nc3cc(C4CCCC4)[nH]n3)n2)CC1)NC1CCCN(C2CC2)C1 [Compound 60, 1-((1R,4R)-4-((4-((5-cyclopentyl-1H-pyrazol-3-yl)amino)pyrimidin-2-yl)amino)cyclohexyl)-3-(1-cyclopropylpiperidine-3-yl)urea] | 50 to 79 | < 20 | – | –
5 | Cc1cc(Nc2ccnc(N[C@H]3CC[C@H](NC(=O)NC4CCN(Cc5ccccn5)CC4)CC3)n2)n[nH]1 [Compound 73, 1-((1R,4R)-4-((4-((5-methyl-1H-pyrazol-3-yl)amino)pyrimidin-2-yl)amino)cyclohexyl)-3-(1-(pyridin-2-ylmethyl)piperidin-4-yl)urea] | < 20 | < 20 | – | –
6 | O=C(NC1CCN(Cc2ccccn2)CC1)N[C@H]1CC[C@H](Nc2nccc(Nc3cc(C4CCOC4)[nH]n3)n2)CC1 (stereo partly drawn) [Compound 74, 1-(1-(pyridin-2-ylmethyl)piperidin-4-yl)-3-((1R,4R)-4-((4-((5-(tetrahydrofuran-3-yl)-1H-pyrazol-3-yl)amino)pyrimidin-2-yl)amino)cyclohexyl)urea] | < 20 | 20 to 49 | – | –
7 | O=C(NC1CCC(Nc2nccc(Nc3cc(C4CCCC4)[nH]n3)n2)CC1)NC1CCN(C2CC2)C1 [Compound 79, 1-((1R,4R)-4-((4-((5-cyclopentyl-1H-pyrazol-3-yl)amino)pyrimidin-2-yl)amino)cyclohexyl)-3-(1-cyclopropylpyrrolidin-3-yl)urea] | 20 to 49 | < 20 | – | –
8 | [H]/N=C(\Nc1cccc(C(F)(F)F)c1)N[C@H]1CC[C@H](Nc2nccc(Nc3cc(C4CCCC4)[nH]n3)n2)CC1 [Compound 81, 1-((1R,4R)-4-((4-((5-cyclopentyl-1H-pyrazol-3-yl)amino)pyrimidin-2-yl)amino)cyclohexyl)-3-(3-(trifluoromethyl)phenyl)guanidine] | 80 to 100 | < 20 | – | –
9 | FC(F)(F)C/N=C(\NC1CCOCC1)N[C@H]1CC[C@H](Nc2nccc(Nc3cc(C4CCCC4)[nH]n3)n2)CC1 [Compound 84] | < 20 | < 20 | – | –
10 | N#Cc1cccc(NC(=N)N[C@H]2CC[C@H](Nc3nccc(Nc4cc(C5CCCC5)[nH]n4)n3)CC2)c1 [Compound 87, 1-(3-cyanophenyl)-3-((1R,4R)-4-((4-((5-cyclopentyl-1H-pyrazol-3-yl)amino)pyrimidin-2-yl)amino)cyclohexyl)guanidine] | – | – | ** (**: degradation 20-49%) | ** (**: degradation 20-49%)
11 | O=C(Nc1cccc(C(F)(F)F)c1)N[C@H]1C[C@H](Nc2nccc(Nc3cc(C4CCCC4)[nH]n3)n2)C1 [Compound 96] | 20 to 49 | 20 to 49 | – | –
12 | O=C(NC1Cc2ccncc2C1)N[C@H]1CC[C@H](Nc2nccc(Nc3cc(C4CCCC4)[nH]n3)n2)CC1 (stereo partly drawn) [Compound 101, 1-((1R,4R)-4-((4-((5-cyclopentyl-1H-pyrazol-3-yl)amino)pyrimidin-2-yl)amino)cyclohexyl)-3-(6,7-dihydro-5H-cyclopenta[c]pyridin-6-yl)urea] | 80 to 100 | < 20 | – | –

Second part, the compound after the results:

Row | Dmax at 2 µM (MycC Protein) [%] | Dmax at 2 µM (MycN Protein) [%] | % Degradation of MycC (MycC Protein) | % Degradation of MycN (MycN Protein) | Compound
13 | < 20 | < 20 | – | – | N#Cc1cccc([C@H]2C[C@H](NC(=O)N[C@H]3CC[C@H](Nc4nccc(Nc5cc(C6CCOC6)[nH]n5)n4)CC3)C2)c1 (some centres unmarked) [Compound 53]
14 | 50 to 79 | < 20 | – | – | CS(=O)(=O)[C@H]1C[C@H](NC(=O)N[C@H]2CC[C@H](Nc3nccc(Nc4cc(C5CCCC5)[nH]n4)n3)CC2)C1 [Compound 57]
15 | 20 to 49 | 50 to 79 | – | – | O=C(NC1CCC(Nc2nccc(Nc3cc(C4CCCC4)[nH]n3)n2)CC1)NC1CCN(C2CC2)CC1 (centres unmarked) [Compound 63]
16 | 20 to 49 | < 20 | – | – | O=C(NC1CCN(CCO)CC1)N[C@H]1CC[C@H](Nc2nccc(Nc3cc(C4CCCC4)[nH]n3)n2)CC1 [Compound 70, 1-((1R,4R)-4-((4-((5-cyclopentyl-1H-pyrazol-3-yl)amino)pyrimidin-2-yl)amino)cyclohexyl)-3-(1-(2-hydroxyethyl)piperidin-4-yl)urea]
17 | 20 to 49 | < 20 | – | – | O=C(NC1CCN(Cc2ccccn2)CC1)N[C@H]1CC[C@H](Nc2nccc(Nc3cc(C4CCCC4)[nH]n3)n2)CC1 [Compound 72, 1-((1R,4R)-4-((4-((5-cyclopentyl-1H-pyrazol-3-yl)amino)pyrimidin-2-yl)amino)cyclohexyl)-3-(1-(pyridin-2-ylmethyl)piperidin-4-yl)urea]
18 | 20 to 49 | < 20 | – | – | O=C(NC1CCN(Cc2ncccn2)CC1)N[C@H]1CC[C@H](Nc2nccc(Nc3cc(C4CCCC4)[nH]n3)n2)CC1 [Compound 75]
19 | 20 to 49 | < 20 | – | – | O=C(NC1CCC(Nc2nccc(Nc3cc(C4CCCC4)[nH]n3)n2)CC1)NC1CC2(C1)CN(C1CC1)C2 [Compound 77, 1-((1R,4R)-4-((4-((5-cyclopentyl-1H-pyrazol-3-yl)amino)pyrimidin-2-yl)amino)cyclohexyl)-3-(2-cyclopropyl-2-azaspiro[3.3]heptan-6-yl)urea]
20 | < 20 | < 20 | – | – | C/N=C(\Nc1cccc(C(F)(F)F)c1)N[C@H]1CC[C@H](Nc2nccc(Nc3cc(C4CCCC4)[nH]n3)n2)CC1 [Compound 83]
21 | < 20 | < 20 | – | – | O=C(NC1CC(c2ccccc2)C1)N[C@H]1CC[C@H](Nc2nccc(Nc3cc(C4CCOC4)[nH]n3)n2)CC1 (stereo partly drawn) [Compound 102, 1-((1R,3R)-3-phenylcyclobutyl)-3-((1,4R)-4-((4-((5-(tetrahydrofuran-3-yl)1H-pyrazol-3-yl)amino)pyrimidine-2-yl)amino)cyclohexyl)urea]
22 | < 20 | < 20 | – | – | Cc1cc(Nc2ccnc(N[C@H]3CC[C@H](NC(=O)NC4CCN(C(=O)C5CC5)CC4)CC3)n2)n[nH]1 [Compound 103, 1-(1-(cyclopropanecarbonyl)piperidin-4-yl)-3-((1R,4R)-4-((4-((5-methyl-1H-pyrazol-3-yl)amino)pyrimidin-2-yl)amino)cyclohexyl)urea]
